Assay results reported in PubChem BioAssay (NCI).
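In this assay, cells in 96-well plates receive the compound at five concentrations for 48 hours. Endpoints are linearly interpolated between the surrounding concentrations. TGI is the concentration that stops growth completely.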

Assays:
Experiment in all cases: NCI tumour cell line growth inhibition, 48 h
COLO 205 colon = tested on: COLO 205 colon
MDA-MB-231 breast = tested on: MDA-MB-231 breast
MDA-N = tested on: MDA-N
NCI-H522 lung = tested on: NCI-H522 lung
SK-MEL-2 melanoma = tested on: SK-MEL-2 melanoma
U251 CNS = tested on: U251 CNS
SW-620 colon = tested on: SW-620 colon
OVCAR-5 ovarian = tested on: OVCAR-5 ovarian
OVCAR-3 ovarian = tested on: OVCAR-3 ovarian
CCRF-CEM leukemia = tested on: CCRF-CEM leukemia
BT-549 breast = tested on: BT-549 breast
A498 renal = tested on: A498 renal
K-562 leukemia = tested on: K-562 leukemia
HCT-15 colon = tested on: HCT-15 colon
SK-OV-3 ovarian = tested on: SK-OV-3 ovarian
SK-MEL-5 melanoma = tested on: SK-MEL-5 melanoma
UACC-62 melanoma = tested on: UACC-62 melanoma
MCF7 breast = tested on: MCF7 breast
DU-145 prostate = tested on: DU-145 prostate
NCI-H23 lung = tested on: NCI-H23 lung
SF-539 CNS = tested on: SF-539 CNS
HCC-2998 colon = tested on: HCC-2998 colon
EKVX NSCLC = tested on: EKVX NSCLC
OVCAR-8 ovarian = tested on: OVCAR-8 ovarian
LOX IMVI melanoma = tested on: LOX IMVI melanoma
NCI/ADR-RES ovarian = tested on: NCI/ADR-RES ovarian
HCT-116 colon = tested on: HCT-116 colon
RXF 393 renal = tested on: RXF 393 renal
IGROV1 ovarian = tested on: IGROV1 ovarian
SN12C renal = tested on: SN12C renal
MDA-MB-435 = tested on: MDA-MB-435
HT29 colon = tested on: HT29 colon
MALME-3M melanoma = tested on: MALME-3M melanoma
NCI-H460 lung = tested on: NCI-H460 lung
786-0 renal = tested on: 786-0 renal
RPMI-8226 leukemia = tested on: RPMI-8226 leukemia
SNB-19 CNS = tested on: SNB-19 CNS
NCI-H226 lung = tested on: NCI-H226 lung
SNB-75 CNS = tested on: SNB-75 CNS
MOLT-4 leukemia = tested on: MOLT-4 leukemia
KM12 colon = tested on: KM12 colon
M14 melanoma = tested on: M14 melanoma
PC-3 prostate = tested on: PC-3 prostate
T-47D breast = tested on: T-47D breast
HS 578T breast = tested on: HS 578T breast
HOP-92 NSCLC = tested on: HOP-92 NSCLC
SF-268 CNS = tested on: SF-268 CNS
A549 NSCLC = tested on: A549 NSCLC
SF-295 CNS = tested on: SF-295 CNS
TK-10 renal = tested on: TK-10 renal
UACC-257 melanoma = tested on: UACC-257 melanoma
HOP-62 NSCLC = tested on: HOP-62 NSCLC
CAKI-1 renal = tested on: CAKI-1 renal
ACHN renal = tested on: ACHN renal
OVCAR-4 ovarian = tested on: OVCAR-4 ovarian
UO-31 renal = tested on: UO-31 renal
HL-60(TB) leukemia = tested on: HL-60(TB) leukemia
SK-MEL-28 melanoma = tested on: SK-MEL-28 melanoma
SR leukemia = tested on: SR leukemia

Measured: TGI

O=c1[nH]c(NCc2cccnc2)nc2nc[nH]c12
not listed: HL-60(TB) leukemia | SK-MEL-28 melanoma | SR leukemia
> 100 µM: all other assays above

CCOC(=O)CNC(=O)C(CCC(=O)N(C)O)NC(=O)CCC(N)C(=O)O (stereo not given)
not listed: MALME-3M melanoma | SR leukemia
> 100 µM: all other assays above

COc1ccc(/C=C2\N=C(N3CCCC(CO)C3)NC2=O)cc1 (stereo not given)
not listed: A498 renal | K-562 leukemia | NCI-H460 lung
> 100 µM: all other assays above

COc1ccc(/C=N\N(C)Cc2cccc3ccsc23)cc1
not listed: SK-MEL-2 melanoma | SF-539 CNS | RPMI-8226 leukemia
> 100 µM: all other assays above
